Test results taken from ChEMBL document CHEMBL1201862, “PubChem BioAssay data set” (2004).
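Where inhibition never reached the appropriate level, the endpoint shown equals the highest concentration tested. Otherwise, values were interpolated linearly from a five-concentration, 48-hour dose response in 96-well plates. Here, GI50 denotes the concentration required for 50% inhibition of growth.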 Activity calls are given as the source filed them. Rule as the data show it: active = GI50 up to about 1.1 µM and inactive = higher.

Legend:
Assay in all cases: NCI anticancer screen, dose series, 48 h
UACC-62 = tested on: UACC-62
HL-60 = tested on: HL-60
CAKI-1 = tested on: CAKI-1
MOLT-4 = tested on: MOLT-4
MDA-N = tested on: MDA-N
LOX IMVI = tested on: LOX IMVI
MDA-MB-231 = tested on: MDA-MB-231
BT-549 = tested on: BT-549
A549 = tested on: A549
SN12C = tested on: SN12C
T47D = tested on: T47D
SF-539 = tested on: SF-539
SK-MEL-28 = tested on: SK-MEL-28
SK-OV-3 = tested on: SK-OV-3
SW-620 = tested on: SW-620
SK-MEL-2 = tested on: SK-MEL-2
NCI-H226 = tested on: NCI-H226
786-0 = tested on: 786-0
IGROV-1 = tested on: IGROV-1

Measured: GI50

COC(=O)C(CCCCN)NC(C)=O.Cc1ccc(C(=O)Nc2ccc(S(=O)(=O)O)c3cc(S(=O)(=O)O)cc(S(=O)(=O)O)c23)cc1NC(=O)c1cccc(NC(=O)Nc2cccc(C(=O)Nc3cc(C(=O)Nc4ccc(S(=O)(=O)O)c5cc(S(=O)(=O)O)cc(S(=O)(=O)O)c45)ccc3C)c2)c1
inactive: UACC-62 > 50 µM | HL-60 > 50 µM | CAKI-1 > 50 µM | MOLT-4 > 50 µM | MDA-N > 50 µM | LOX IMVI 44.8 µM | MDA-MB-231 > 50 µM | BT-549 > 50 µM | A549 > 50 µM | SN12C > 50 µM | T47D > 50 µM | SF-539 > 50 µM | SK-MEL-28 > 50 µM | SK-OV-3 > 50 µM | SW-620 > 50 µM | SK-MEL-2 > 50 µM | NCI-H226 > 50 µM | 786-0 > 50 µM

S=C(/N=C1/NCC(CN2CCN(c3ccccc3)CC2)O1)Nc1ccccc1 (stereo unspecified)
inactive: UACC-62 39.7 µM | HL-60 29 µM | CAKI-1 73.3 µM | IGROV-1 > 100 µM | MOLT-4 27.5 µM | MDA-N > 100 µM | LOX IMVI 25 µM | MDA-MB-231 35.9 µM | BT-549 37.5 µM | A549 61 µM | SN12C > 100 µM | T47D 29.7 µM | SF-539 34.4 µM | SK-MEL-28 > 100 µM | SK-OV-3 > 100 µM | SW-620 52.7 µM | SK-MEL-2 35.6 µM | NCI-H226 > 100 µM | 786-0 76.7 µM

Fc1cccc(Cl)c1/C=N\N=C1c2ccccc2-c2ccccc21
inactive: UACC-62 > 100 µM | HL-60 > 100 µM | CAKI-1 > 100 µM | IGROV-1 64.3 µM | MOLT-4 66.4 µM | MDA-N 48.3 µM | LOX IMVI > 100 µM | MDA-MB-231 90.4 µM | BT-549 > 100 µM | A549 70 µM | SN12C > 100 µM | T47D 30 µM | SF-539 49.4 µM | SK-MEL-28 76 µM | SK-OV-3 > 100 µM | SW-620 73.8 µM | SK-MEL-2 > 100 µM | NCI-H226 > 100 µM | 786-0 > 100 µM

CC[C@@]12CCCN3CC[C@]4(c5cccc(OC)c5N(C(C)=O)[C@@H]4CC1)[C@H]32 [ASPIDOSPERMINE]
inactive: UACC-62 > 100 µM | HL-60 20.7 µM | CAKI-1 > 100 µM | IGROV-1 24.2 µM | MOLT-4 25.3 µM | MDA-N 34.6 µM | LOX IMVI 30.6 µM | MDA-MB-231 > 100 µM | BT-549 86.9 µM | A549 > 100 µM | SN12C > 100 µM | T47D > 100 µM | SF-539 78.5 µM | SK-MEL-28 80.2 µM | SK-OV-3 > 100 µM | SW-620 > 100 µM | SK-MEL-2 90.4 µM | NCI-H226 93.8 µM | 786-0 80.5 µM

O=C(O)COc1cccc2ccccc(=O)c12
inactive: UACC-62 > 100 µM | HL-60 > 100 µM | CAKI-1 > 100 µM | IGROV-1 > 100 µM | MOLT-4 > 100 µM | MDA-N > 100 µM | LOX IMVI > 100 µM | MDA-MB-231 > 100 µM | BT-549 > 100 µM | A549 > 100 µM | SN12C > 100 µM | T47D > 100 µM | SF-539 > 100 µM | SK-MEL-28 > 100 µM | SK-OV-3 > 100 µM | SW-620 > 100 µM | SK-MEL-2 > 100 µM | NCI-H226 > 100 µM | 786-0 > 100 µM

O=C1C(Br)=C(c2ccccc2)O/C1=C/C(=O)c1ccc(Br)cc1
inactive: UACC-62 23.9 µM | HL-60 13 µM | CAKI-1 19 µM | IGROV-1 54.7 µM | MOLT-4 31.6 µM | MDA-N 15.5 µM | MDA-MB-231 34.8 µM | BT-549 5.38 µM | SN12C 8.75 µM | T47D 32.9 µM | SF-539 > 100 µM | SK-MEL-28 51.3 µM | SW-620 23.5 µM | NCI-H226 > 100 µM | 786-0 18.4 µM

O=C(C1OC1c1ccc(F)cc1)C12CC3CC(CC(C3)C1)C2 (stereo unspecified)
inactive: UACC-62 15.2 µM | HL-60 4.04 µM | CAKI-1 25 µM | IGROV-1 19 µM | MOLT-4 15.8 µM | MDA-N 12.7 µM | LOX IMVI 2.85 µM | MDA-MB-231 26.5 µM | BT-549 15.6 µM | A549 21 µM | SN12C 16.4 µM | T47D 25.1 µM | SF-539 21.2 µM | SK-MEL-28 24.4 µM | SK-OV-3 31.1 µM | SW-620 17.2 µM | SK-MEL-2 12.9 µM | NCI-H226 20.2 µM | 786-0 15.2 µM

C[n+]1c(-c2ccc(/C=N\N3CCN(/N=C/c4ccc(-c5cn6ccsc6[n+]5C)cc4)CC3)cc2)cn2ccsc21
inactive: UACC-62 22.1 µM | HL-60 21.2 µM | CAKI-1 34 µM | IGROV-1 30.7 µM | MOLT-4 85.3 µM | MDA-N 25.7 µM | LOX IMVI 60.8 µM | MDA-MB-231 20.7 µM | BT-549 17.1 µM | A549 44.1 µM | SN12C 35.2 µM | T47D 12.7 µM | SF-539 30.3 µM | SK-OV-3 8.04 µM | SW-620 32.1 µM | SK-MEL-2 31.8 µM | NCI-H226 45.8 µM | 786-0 26.1 µM

CCC/N=C/c1cc(Cc2ccc(O)c(/C=N/CCC)c2)ccc1O
inactive: UACC-62 5.53 µM | HL-60 2.21 µM | CAKI-1 21.1 µM | IGROV-1 4.09 µM | MOLT-4 1.54 µM | MDA-N 2.78 µM | LOX IMVI 3.17 µM | MDA-MB-231 9.89 µM | BT-549 10.7 µM | A549 17 µM | SN12C 3.82 µM | T47D 1.45 µM | SF-539 2.77 µM | SK-OV-3 18.5 µM | SW-620 3.55 µM | SK-MEL-2 3 µM | NCI-H226 8.43 µM | 786-0 12.8 µM

Cc1[nH]c(=O)c2oc3cc4ccccc4cc3c2c1C(=O)O
inactive: UACC-62 > 10 µM | HL-60 > 10 µM | IGROV-1 > 10 µM | MDA-N > 10 µM | LOX IMVI > 10 µM | MDA-MB-231 > 10 µM | BT-549 > 10 µM | A549 > 10 µM | SN12C > 10 µM | T47D > 10 µM | SF-539 > 10 µM | SK-OV-3 > 10 µM | SW-620 > 10 µM | SK-MEL-2 > 10 µM | NCI-H226 > 10 µM | 786-0 > 10 µM

COc1cccc(Nc2nc(C)c([N+](=O)[O-])c(Nc3cccc(OC)c3)n2)c1
inactive: UACC-62 5.75 µM | HL-60 11.2 µM | IGROV-1 14.6 µM | MOLT-4 4.37 µM | MDA-N 17.9 µM | LOX IMVI 16.1 µM | MDA-MB-231 49.7 µM | BT-549 1.85 µM | A549 12.1 µM | SN12C 54.3 µM | T47D 2.05 µM | SF-539 29 µM | SK-MEL-28 39.5 µM | SK-OV-3 > 100 µM | SW-620 > 100 µM | SK-MEL-2 15.9 µM | NCI-H226 40.8 µM | 786-0 51.9 µM

O=CC(O)C(O)C(O)C(O)C(=O)NCCCCCCCCCCCCNC(=O)C(O)C(O)C(O)C(O)C=O (stereo unspecified)
inactive: UACC-62 > 100 µM | HL-60 > 100 µM | IGROV-1 > 100 µM | MOLT-4 > 100 µM | MDA-N > 100 µM | LOX IMVI > 100 µM | MDA-MB-231 > 100 µM | BT-549 > 100 µM | A549 > 100 µM | T47D > 100 µM | SF-539 > 100 µM | SK-MEL-28 > 100 µM | SK-OV-3 > 100 µM | SW-620 > 100 µM | SK-MEL-2 > 100 µM | NCI-H226 > 100 µM | 786-0 > 100 µM

CCCCCCC(N)(CCCCCC)C(=O)Nn1c(C)ccc1C
inactive: UACC-62 48 µM | HL-60 5.36 µM | IGROV-1 > 100 µM | MOLT-4 > 100 µM | MDA-N > 100 µM | MDA-MB-231 88.3 µM | BT-549 > 100 µM | A549 11.4 µM | SN12C > 100 µM | T47D 13.6 µM | SK-MEL-28 > 100 µM | SK-OV-3 > 100 µM | SW-620 > 100 µM | SK-MEL-2 > 100 µM | NCI-H226 43.7 µM | 786-0 28.6 µM

CC(=O)OC1CC2(C)C(OC(C)=O)CC1C2(C)C (stereo unspecified)
inactive: UACC-62 > 100 µM | HL-60 > 100 µM | IGROV-1 > 100 µM | MOLT-4 > 100 µM | MDA-N > 100 µM | LOX IMVI > 100 µM | MDA-MB-231 > 100 µM | BT-549 > 100 µM | A549 > 100 µM | SN12C > 100 µM | T47D > 100 µM | SF-539 > 100 µM | SK-MEL-28 > 100 µM | SK-OV-3 > 100 µM | SW-620 > 100 µM | NCI-H226 > 100 µM | 786-0 > 100 µM

COc1ccc(-n2sc3ncccc3c2=O)cc1
inactive: UACC-62 36.4 µM | HL-60 3.58 µM | IGROV-1 23.6 µM | MOLT-4 8.18 µM | MDA-N 21.5 µM | LOX IMVI 30.8 µM | MDA-MB-231 21.7 µM | BT-549 20.4 µM | A549 69.5 µM | SN12C 38.2 µM | T47D 17.7 µM | SF-539 17.3 µM | SK-MEL-28 23.6 µM | SK-OV-3 > 100 µM | SW-620 32.1 µM | SK-MEL-2 > 100 µM | NCI-H226 39.4 µM | 786-0 15.9 µM
